Measurements: article PMC7335359, “Design and Synthesis of Dihydroxamic Acids as HDAC6/8/10 Inhibitors” (Chemmedchem, 2020)

How the values were obtained:
[1] = target: T1, HDAC10 (Homo sapiens, UniProt Q969S8); assay: ligand displacement TR-FRET assay, HDAC10; format: binding; parameters: host or cells: Sf21 insect cells (baculovirus); conditions: ligand-displacement FRET assay; read-out: HDAC10 pIC50 (converted)
T1 sequence (Q969S8 1-669): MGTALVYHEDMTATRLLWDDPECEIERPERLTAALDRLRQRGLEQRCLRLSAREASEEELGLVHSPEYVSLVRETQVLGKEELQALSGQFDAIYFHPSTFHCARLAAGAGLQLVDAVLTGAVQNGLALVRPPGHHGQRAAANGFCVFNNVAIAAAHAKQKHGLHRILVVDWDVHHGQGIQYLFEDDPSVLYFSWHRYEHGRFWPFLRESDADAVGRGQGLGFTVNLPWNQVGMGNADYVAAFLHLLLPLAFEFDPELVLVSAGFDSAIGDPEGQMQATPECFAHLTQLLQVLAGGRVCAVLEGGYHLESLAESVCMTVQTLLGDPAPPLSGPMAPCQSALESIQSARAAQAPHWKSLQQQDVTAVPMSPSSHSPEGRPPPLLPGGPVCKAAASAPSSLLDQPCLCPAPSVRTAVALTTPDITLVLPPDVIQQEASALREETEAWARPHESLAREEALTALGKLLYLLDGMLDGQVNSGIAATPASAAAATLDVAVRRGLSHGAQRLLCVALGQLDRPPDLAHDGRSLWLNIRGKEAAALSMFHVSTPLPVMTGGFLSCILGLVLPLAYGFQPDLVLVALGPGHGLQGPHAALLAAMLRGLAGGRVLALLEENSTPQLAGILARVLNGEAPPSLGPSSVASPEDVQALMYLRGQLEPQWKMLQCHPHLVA
Method: Expression and purification of TwinStrepII‐GST‐HDAC10: A synthetic gene encoding TwinStrepII‐GST‐HDAC10 (human) was ordered from GeneArt (Thermo Fischer Scientific) and subcloned into the pFastBac1 vector. The resulting construct was used for transposition in E. coli DH10EMBacY cells. The isolated bacmid DNA was then used to generate the recombinant baculovirus. For protein expression, 10 mL of baculovirus was added to 1 L of Sf21 cells at a density of 1×10^6 cells/mL. The infected Sf21 cells were grown for 72 h in Sf‐900 III SFM medium (Thermo Fischer Scientific) at 27 °C. Cells were harvested by centrifugation and re‐suspended in running buffer (100 mM Tris pH 8.0, 150 mM NaCl, 1 mM EDTA and 1 mM DTT) supplemented with 10 mM MgCl2, benzonase and cOmplete protease inhibitors (Merck). […] The clarified lysate was then loaded onto a 5 mL Strep‐Tactin Superflow high capacity column (IBA) pre‐equilibrated in running buffer. After sample loading and washing, the TwinStrepII‐GST‐HDAC10 protein was eluted in running buffer supplemented with 5 mM desthiobiotin (IBA). The elution fractions containing TwinStrepII‐GST‐HDAC10 were pooled and concentrated before being injected onto a HiLoad 16/600 Superdex 200 pg size exclusion chromatography column (GE Healthcare) pre‐equilibrated with 25 mM HEPES/NaCl pH 7.5, 150 mM NaCl, 0.5 mM EDTA, 1 mM DTT and 10 % glycerol. Samples were eluted from the size exclusion chromatography column in the same buffer, flash‐frozen in liquid N2 and stored at −80 °C.
The TR‐FRET measurements of the monohydroxamic acids in this manuscript were measured in the original assay format, which is described directly below this paragraph. The TR‐FRET measurements of the dihydroxamic acids in this manuscript were measured in the modified format, which is described two paragraphs below this one.
The concentrations of reagents in 10 μL final assay volume were 3 nM GST‐HDAC10, 30 nM “Tubastatin‐Alexa647‐Tracer” and 0.5 nM Eu‐anti‐GST. GST‐HDAC10 and LanthaScreen™ Eu‐anti‐GST Antibody were purchased from Life Technologies, and the Tubastatin‐Alexa647‐Tracer was synthesized in‐house as previously described.19 An 11‐fold 1 : 3‐serial dilution of compounds starting at 2 mM was prepared in 384 well pp‐plates (Greiner) from 10 mM stocks in DMSO and 1 μL was transferred to assay plates. Nine μL of the reagent‐mix was added and the plate was incubated for 1 h at RT before TR‐FRET was measured in an EnVision™ plate reader equipped with a TR‐FRET Laser module. […] Percent inhibition was calculated for each well from negative control wells containing 2 % DMSO and positive control wells containing 20 μM SAHA. The resulting dose‐response curves were fitted in ActivityBase (IDBS) using a four‐parameter logistic model and pIC50‐values were calculated.
After drug dosing to the premixed assay reagents in buffer, plates were shaken (800 rpm orbital shaker, 30 s), centrifuged (300 g, 1 min) and incubated at room temperature in the dark for 60 min. TR‐FRET was measured with a CLARIOstar (BMG Labtech) plate reader, equipped with TR‐FRET filters.

[2] = target: T2, HDAC8 (Homo sapiens, UniProt Q9BY41); assay: HDAC-Glo I/II enzymatic assay, HDAC8; format: biochemical; conditions: read-out: HDAC8 pIC50 (converted)
T2 construct: purchased BPS Bioscience 50008
T2 sequence (Q9BY41 1-377): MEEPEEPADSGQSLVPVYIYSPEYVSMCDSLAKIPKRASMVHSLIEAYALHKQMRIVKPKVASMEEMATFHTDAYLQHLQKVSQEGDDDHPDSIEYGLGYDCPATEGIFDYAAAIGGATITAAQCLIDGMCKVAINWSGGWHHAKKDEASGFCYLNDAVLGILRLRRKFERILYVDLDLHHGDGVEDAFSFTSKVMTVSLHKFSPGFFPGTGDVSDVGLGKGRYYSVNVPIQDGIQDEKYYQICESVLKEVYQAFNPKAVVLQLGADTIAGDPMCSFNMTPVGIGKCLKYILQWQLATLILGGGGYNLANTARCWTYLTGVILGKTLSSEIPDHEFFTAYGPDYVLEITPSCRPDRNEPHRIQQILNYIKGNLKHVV
Method: Inhibitors were tested at eight serial dilutions in triplicate ranging from 50 μM–86,7 pM (HDAC6) or 100 μM–8,67 nM (HDAC1,2,3,8). Drug dosing was performed from 10 mM and 0.1 mM DMSO stock solutions with a D300e Digital Dispenser (Tecan). HDACs (7 ng/mL for HDAC1, 10 ng/mL for HDAC2, 200 ng/mL for HDAC3/Ncor2 complex, 100 ng/mL for HDAC6, 200 ng/mL for HDAC8) and inhibitors were incubated together for 30 min at room temperature. After addition of the HDAC‐Glo™ I/II reagent, plates were shaken (800 rpm orbital shaker, 30 s), centrifuged (300 g, 1 min) and incubated at room temperature for 30 min. Luminescence was detected with a CLARIOstar (BMG Labtech) plate reader.

[3] = target: T1, HDAC10; parameters: host or cells: Sf21 insect cells (baculovirus); method as in PMID 30964290; conditions: previously shown; cited from earlier work
[4] = system: lysosomal staining with LysoTracker DND‐99 (HDAC10 knockdown phenotype); assay: LysoTracker assay in SK-N-BE(2)C cells; format: cell-based; conditions: 10 μM inhibitor, normalized to DMSO
Method: LysoTracker assay: SK‐N‐BE(2)‐C cells were seeded into 6‐well dishes at a density of 1.5×10^5 cells per well. Cells were treated with inhibitor over night at concentrations indicated in the figure and stained the following day for 1 h with 50 nM LysoTracker® Red DND‐99 in medium under standard cell culture conditions. Cells were washed with ice‐cold RPMI without phenol‐red and trypsinized for 3 min at 37 °C. Detached cells were centrifuged for 3 min at 8600 g and re‐suspended in ice‐cold RPMI without phenol red. Mean LysoTracker fluorescence was quantified on a BD FACSCanto II platform using the PE filter setting. Data were normalized to mean LysoTracker fluorescence of solvent (DMSO) treated cells.

[5] = system: SK‐N‐BE(2)C neuroblastoma cell line; assay: SK-N-BE(2)C cell viability assay (CellTiter-Blue); format: cell-based; conditions: SK-N-BE(2)C cells
Method: Cell viability assay: SK‐N‐BE(2)C cells were cultured in Dulbecco's modified Eagle medium (DMEM, Lonza, Basel, Switzerland) supplemented with 10 % fetal calf serum (FCS, Sigma‐Aldrich) and 1 % non‐essential amino acids (NEAA, Lonza). SK‐N‐BE(2)C cells were seeded from a confluent flask into 96‐well plates in 100 μL full growth medium at a density of 5×10^3 cells per well the day before treatment. Cells were treated in triplicates with drug concentrations as indicated in the respective figure. Drugs were dosed from 50 mM and 200 mM stock solutions with a D300e Digital Dispenser (Tecan) and DMSO concentrations were normalized to 0.2 % for all wells. Plates were shaken (1000 rpm orbital shaker, 30 s) and incubated under standard culture conditions for 72 h. To each well 20 μL of CellTiter‐Blue® reagent (G8081, Promega) was added, plates were shaken (600 rpm orbital shaker, 20 s) and incubated at 37 °C overnight. Fluorescence was measured (extinction/emission: 570 nm/590 nm) on a FluoStar Optima (BMG Labtech) plate reader. Cell viability was normalized with untreated positive controls and cell‐free negative controls. IC50‐values were calculated as described in the BRET assay.

[6] = target: T1, HDAC10; assay: cellular BRET HDAC10 target engagement assay (stably transfected HeLa cells); format: cell-based; parameters: host or cells: HeLa (stably transfected mono-clones); conditions: cellular target engagement, one experiment in triplicate; read-out: HDAC10 BRET pIC50 (converted)
Method: Production of mono‐clones stably expressing HDAC‐nanoBRET proteins: Plasmids expressing a fusion of HDAC10 with nanoluciferase were obtained from Promega (N2170). HeLa cells (0.75×10^6) were seeded in a 6 cm dish and after 24 h were transfected with a mix of 10 μg plasmid and 3 μL Fugene in 200 μL OptiMEM. In detail, cells were washed with pre‐warmed OptiMEM and subsequently overlaid with 2.3 mL of OptiMEM. After addition of 200 μL transfection mix, cells were incubated for 24 h at 37 °C. Cells were than trypsinized and 0.2×10^5 cells were seeded into both 10 cm and 15 cm dishes. Transformants were selected with 1 mg/mL G‐418 for 6 days with a media change after 3 days. Clones which formed colonies were picked by rinsing plates with 3 mL Trypsin/EDTA (Sigma T3924) followed by a 2 min incubation with 300 μL Trypsin/EDTA at 37 °C. Colonies were then loosened and aspirated with a 10 μL filter tip and transferred to 24‐well plates containing selection medium.
Culture of stable BRET cell lines: Stably transfected HeLa cells were cultivated under sterile conditions in polystyrene cell culture flasks (658170, Greiner) at 37 °C and 5 % CO2 in a humidified atmosphere. DMEM growth medium (D6049, Sigma) was supplemented with 10 % FCS (FBS‐12A, Capricorn Scientific), 1 % penicillin‐streptomycin (P4333, Sigma) and 1 mg/mL Geneticin (2039.3, Roth). At confluency, cells were passaged by removing old medium, DPBS (14190‐094, gibco) wash, trypsination (T4049, Sigma) and seeding in fresh growth medium.
BRET assay: The intracellular target engagement assay on HDAC10 was performed as described by the kit manufacturer in a 96‐well plate (3600, Corning) format with 1.9×10^4 cells per well and a tracer concentration of 0.3 μM. […] Drug dosing was performed from 10 mM and 1 mM DMSO stock solutions with a D300e Digital Dispenser (Tecan), DMSO concentrations were normalized to 0.5 % for all wells. Assay plates were incubated at 37 °C for 2 h followed by measurement of 450 nm and 650 nm luminescence (80 nm bandwidth) at room temperature with a CLARIOstar (BMG Labtech) plate reader 2 min after NanoLuc substrate addition.

[7] = system: acetylation of the HDAC8 substrate SMC3; assay: Western blot of SMC3 acetylation in SK-N-BE(2)C cells; format: cell-based; conditions: relative to solvent control
Method: Western blot analysis of SMC3, tubulin and histone H3 acetylation: For the analysis of protein acetylation, 1.5–2×10^6 SK‐N‐BE(2)‐C cells were seeded per 10 cm dish and allowed to adhere overnight. Cells were treated for 18 h (Figure 4B) or 6 h (Figure 4E) with inhibitors at concentrations indicated in the respective figure. […] Cell debris was removed by centrifugation (15 000 g for 10 min at 12 °C).

IC50 [1] [nM]	IC50 [2] [nM]	Structure (SMILES)	further results
1620	49	COc1ccc(Cn2cc(CN(C)C)c3ccc(C(=O)NO)cc32)cc1 [Compound 2b]	
6460	141	COc1ccc(Cn2c3c(c4ccc(C(=O)NO)cc42)CN(C)CC3)cc1 [Compound 2c]	
3160	69.2	COc1ccc(Cc2c[nH]c3ccc(C(=O)NO)cc23)cc1 [Compound 2d]	
661	43.7	COc1ccc(Cc2cn(CCN(C)C)c3ccc(C(=O)NO)cc23)cc1 [Compound 2e]	
19100	20.9	COc1ccc(Cn2ncc3ccc(C(=O)NO)cc32)cc1 [Compound 2f]	
6920	29.5	COc1ccc(Cn2nc(CN(C)C)c3ccc(C(=O)NO)cc32)cc1 [Compound 2g]	acetylation of SMC3 (HDAC8 substrate), Western blot [7]: increased acetylation

The remaining lines, values behind:

Structure (SMILES)	IC50 [1] [nM]	IC50 [2] [nM]	further results
O=C(NO)c1ccc(Cn2ccc3ccccc32)cc1 [Compound 1a]	66.1	380	
CN(C)Cc1cn(Cc2ccc(C(=O)NO)cc2)c2ccccc12 [Compound 1b]	5.25	955	selectivity for HDAC10 over HDACs 1, 2, and 3 [3]: > 100 fold
CN1CCc2c(c3ccccc3n2Cc2ccc(C(=O)NO)cc2)C1 [Compound 1c, reference compound]			lysosomal staining with LysoTracker DND-99 (HDAC10 knockdown phenotype) [4]: effective; cytotoxicity (extent of effect) ([5]; Figure S1): fully cytotoxic
O=C(NO)c1ccc(Cc2c[nH]c3ccccc23)cc1 [Compound 1d, 4-((1H-indol-3-yl)methyl)-N-hydroxyb en zamide]	27.5		IC50 [6]: 39.8 nM
O=C(NO)c1ccc(Cn2ncc3ccccc32)cc1 [Compound 1f]	234	389	
COc1ccc(Cn2ccc3ccc(C(=O)NO)cc32)cc1 [Compound 2a]			acetylation of SMC3 (HDAC8 substrate), Western blot [7]: increased acetylation; cytotoxicity (extent of effect) ([5]; Figure S1): not fully cy totoxic; Emax ([5]; Figure S1, read-out: maximum effect, cell growth inhibition): 62%; EC50 ([5]; read-out: EC50 dose-response curve (Figure S1)): 8.1 µM
